Measured values published in patent US8080529B2, “Macrolides with anti-inflammatory activity” (Glaxo Group Limited, priority 2005, dated 2011).
Read-outs that look alike come from different tables or passages of the source.

Columns and labels:
Assay type in all cases: cell-based
TNF-α = experiment: Inhibition of TNF-α production by stimulated human peripheral blood leukocytes in vitro; conditions: for inhibition at 10 µM / inhibition at 50 µM: Homo sapiens, Leukocyte, read-out: Percentage of inhibition of TNF-α production
Description: (§1) Test substances used in in vitro experiments were dissolved in dimethyl sulfoxide (DMSO) (Kemika, Croatia) at concentrations of 50 mM and 10 mM, and were further diluted to final concentrations of 50 μM and 10 μM in 1 mL Dulbecco's modified Eagle medium (DMEM) supplemented with 1% heat inactivated fetal bovine serum (FBS), 1% L-glutamine, 50 U/ml penicillin, 50 μg/ml streptomycin and 2.5 μg/mL Fungizone (amphotericin B). Media and all media supplements were purchased from Gibco, Australia, except the FBS was purchased from Sigma, USA.
(§2) Peripheral blood leukocytes (PBL) were obtained from venous blood of healthy volunteers by sedimentation on 2% dextran T-500 (Amersham Biosciences, USA) and subsequent centrifugations of leukocyte rich plasma.
(§3) Peripheral blood leukocytes (PBL), isolated as described above, were seeded in a 48-well plate at a concentration of 3 to 5×10^6 cell per well in culture medium consisting of RPMI 1640 medium (Institute of Immunology, Croatia) supplemented with 10% heat-inactivated fetal calf serum (FCS, Biowhittaker, USA), 100 U/ml penicillin (Gibco, Australia), 100 μg/ml streptomycin (Gibco, Australia) and 2 mM L-glutamine (Gibco, Australia), and preincubated with the test compounds for 2 h at 37° C., in an atmosphere of 5% CO2, and 90% humidity. Then, stimuli (Sigma, USA) were added to a final concentration of 2 μg/mL lipopolysaccharide (LPS), 1 μg/mL phorbol 12-myristate 13-acetate (PMA) or 120 μg/mL zymosan. Samples were incubated overnight under conditions described above. At the end of incubation, the supernatants were transferred to eppendorf tubes and centrifuged for 10 min at 1500×g. Concentrations of human TNF-α, IL-1β, IL-6 and IL-8 were determined in cell supernatants by sandwich ELISA, using capture and detection antibodies (R&D Systems, Minneapolis, Minn.) according to the manufacturer's recommendations.
(§4) Inhibition (as percentage) was calculated using the following formula: % inhibition=(1−concentration of cytokines in sample/concentration of cytokines in positive control)×100.
(§5) The positive control refers to LPS-, PMA- or zymosan-stimulated samples that were not preincubated with test compounds.

IL-6 = experiment: Inhibition of IL-6 production by stimulated human peripheral blood leukocytes in vitro; conditions: for inhibition at 10 µM / inhibition at 50 µM: Homo sapiens, Leukocyte, read-out: Percentage of inhibition of IL-6 production
Description: as §1, §2, §3, §4, §5

IL-1α = experiment: Inhibition of IL-1 production by stimulated human peripheral blood leukocytes in vitro; conditions: for inhibition at 10 µM / inhibition at 50 µM: Homo sapiens, Leukocyte, read-out: Percentage of inhibition of IL-1α production
IL-8 = experiment: Inhibition of IL-8 production by stimulated human peripheral blood leukocytes in vitro; conditions: for inhibition at 10 µM / inhibition at 50 µM: Homo sapiens, Leukocyte, read-out: Percentage of inhibition of IL-8 production
Description: as §1, §2, §3, §4, §5

`CCC(=O)N(C)[C@H]1C[C@@H](C)O[C@@H](O[C@@H]2[C@@H](C)[C@H](O[C@H]3C[C@@](C)(OC)[C@@H](OC(=O)CCN(CC)CC)[C@H](C)O3)[C@@H](C)C(=O)O[C@H](CC)[C@@](C)(O)[C@H](O)[C@@H](C)NC(=O)[C@H](C)C[C@@]2(C)OC)[C@@H]1O` [Example 63, 3′-N-methyl-3′-N-propionyl-4″-O-(3-diethylaminopropionyl)-6-O-methyl-9a-aza-9a-homoerythromycin A] was tested, and the “Percentage of inhibition of TNF-α production” value (TNF-α; 10 μM, LPS-stimulated PBL) was 0%, the “Percentage of inhibition of TNF-α production” value (TNF-α; 10 μM, PMA-stimulated PBL) was 21% and the “Percentage of inhibition of TNF-α production” value (TNF-α; 10 μM, zymosan-stimulated PBL) was 0%. The “Percentage of inhibition of TNF-α production” value (TNF-α; 50 μM, LPS-stimulated PBL) was 69%, the “Percentage of inhibition of TNF-α production” value (TNF-α; 50 μM, PMA-stimulated PBL) was 73% and the “Percentage of inhibition of TNF-α production” value (TNF-α; 50 μM, zymosan-stimulated PBL) was 87%. For the same compound, the “Percentage of inhibition of IL-6 production” value (IL-6; 10 μM, LPS-stimulated PBL) was 8%, the “Percentage of inhibition of IL-6 production” value (IL-6; 10 μM, PMA-stimulated PBL) was 24% and the “Percentage of inhibition of IL-6 production” value (IL-6; 10 μM, zymosan-stimulated PBL) was 0%. For the same compound, the “Percentage of inhibition of IL-6 production” value (IL-6; 50 μM, LPS-stimulated PBL) was 60%, the “Percentage of inhibition of IL-6 production” value (IL-6; 50 μM, PMA-stimulated PBL) was 62% and the “Percentage of inhibition of IL-6 production” value (IL-6; 50 μM, zymosan-stimulated PBL) was 90%. For the same compound, the “Percentage of inhibition of IL-1α production” value (IL-1α; 10 μM, LPS-stimulated PBL) was 59%, the “Percentage of inhibition of IL-1α production” value (IL-1α; 10 μM, PMA-stimulated PBL) was 52% and the “Percentage of inhibition of IL-1α production” value (IL-1α; 10 μM, zymosan-stimulated PBL) was 45%. For the same compound, the “Percentage of inhibition of IL-1α production” value (IL-1α; 50 μM, LPS-stimulated PBL) was 89%, the “Percentage of inhibition of IL-1α production” value (IL-1α; 50 μM, PMA-stimulated PBL) was 81% and the “Percentage of inhibition of IL-1α production” value (IL-1α; 50 μM, zymosan-stimulated PBL) was 100%. For the same compound, the “Percentage of inhibition of IL-8 production” value (IL-8; 10 μM, LPS-stimulated PBL) was 0%, the “Percentage of inhibition of IL-8 production” value (IL-8; 10 μM, PMA-stimulated PBL) was 0% and the “Percentage of inhibition of IL-8 production” value (IL-8; 10 μM, zymosan-stimulated PBL) was 0%. For the same compound, the “Percentage of inhibition of IL-8 production” value (IL-8; 50 μM, LPS-stimulated PBL) was 36%, the “Percentage of inhibition of IL-8 production” value (IL-8; 50 μM, PMA-stimulated PBL) was 3% and the “Percentage of inhibition of IL-8 production” value (IL-8; 50 μM, zymosan-stimulated PBL) was 44%.
Work on `CC[C@H]1OC(=O)[C@H](C)[C@@H](O[C@H]2C[C@@](C)(OC)C(OC(=O)CCN(CC)CC)[C@H](C)O2)[C@H](C)[C@@H](O[C@@H]2O[C@H](C)C[C@H](NC)[C@H]2O)[C@](C)(O)C[C@@H](C)CN(C)[C@H](C)[C@@H](O)[C@]1(C)O` (stereo partly drawn) [Example 90, 3′-N-Demethyl-4″-O-(3-diethylaminopropionyl)-azithromycin] yielded an inhibition at 10 µM (TNF-α; 10 μM, LPS-stimulated PBL) of 78%, an inhibition at 10 µM (TNF-α; 10 μM, PMA-stimulated PBL) of 40% and an inhibition at 10 µM (TNF-α; 10 μM, zymosan-stimulated PBL) of 53%. The inhibition at 50 µM (TNF-α; 50 μM, LPS-stimulated PBL) was 100%, the inhibition at 50 µM (TNF-α; 50 μM, PMA-stimulated PBL) was 95% and the inhibition at 50 µM (TNF-α; 50 μM, zymosan-stimulated PBL) was 94%. The inhibition at 10 µM (IL-6; 10 μM, LPS-stimulated PBL) was 67%, the inhibition at 10 µM (IL-6; 10 μM, PMA-stimulated PBL) was 46% and the inhibition at 10 µM (IL-6; 10 μM, zymosan-stimulated PBL) was 60%. The inhibition at 50 µM (IL-6; 50 μM, LPS-stimulated PBL) was 88%, the inhibition at 50 µM (IL-6; 50 μM, PMA-stimulated PBL) was 90% and the inhibition at 50 µM (IL-6; 50 μM, zymosan-stimulated PBL) was 100%. For the same compound, the inhibition at 10 µM (IL-1α; 10 μM, LPS-stimulated PBL) was 62%, the inhibition at 10 µM (IL-1α; 10 μM, PMA-stimulated PBL) was 61% and the inhibition at 10 µM (IL-1α; 10 μM, zymosan-stimulated PBL) was 82%. For the same compound, the inhibition at 50 µM (IL-1α; 50 μM, LPS-stimulated PBL) was 91%, the inhibition at 50 µM (IL-1α; 50 μM, PMA-stimulated PBL) was 57% and the inhibition at 50 µM (IL-1α; 50 μM, zymosan-stimulated PBL) was 100%. For the same compound, the inhibition at 10 µM (IL-8; 10 μM, LPS-stimulated PBL) was 4%, the inhibition at 10 µM (IL-8; 10 μM, PMA-stimulated PBL) was 0% and the inhibition at 10 µM (IL-8; 10 μM, zymosan-stimulated PBL) was 24%. It also gave an inhibition at 50 µM (IL-8; 50 μM, LPS-stimulated PBL) of 38%, an inhibition at 50 µM (IL-8; 50 μM, PMA-stimulated PBL) of 53% and an inhibition at 50 µM (IL-8; 50 μM, zymosan-stimulated PBL) of 88%.
